Assay results taken from article PMC13495017 (ACS Bio & Med Chem Au, 2026).

How the values were obtained:
Assay type in all cases: cell-based
CB1 = CB1 (Homo sapiens, UniProt P21554); test: BRET Gαi1 engagement, CB1 wild-type; conditions: CB1 WT, HEK-293T, normalized against CP55940, mean ± SEM
CB2 [1] = target: T1, CB2 (Homo sapiens, UniProt P34972); test: BRET Gαi1 engagement, CB2 wild-type; conditions: HEK-293T, read-out: E max, CB2 Gαi1 Engagement
CB2 [2] = target: T1, CB2; test: BRET β-arrestin 2 recruitment, CB2 wild-type; conditions: HEK-293T, read-out: E max, CB2 β-Arrestin 2 Recruitment
CB1 L193I = CB1 L193I (Homo sapiens, UniProt P21554, L193I); test: BRET Gαi1 engagement, CB1 L193I mutant; conditions: read-out: E max, CB1 L193I Gαi1 Engagement
Chain of CB1 L193I (P21554 whole entry L193I): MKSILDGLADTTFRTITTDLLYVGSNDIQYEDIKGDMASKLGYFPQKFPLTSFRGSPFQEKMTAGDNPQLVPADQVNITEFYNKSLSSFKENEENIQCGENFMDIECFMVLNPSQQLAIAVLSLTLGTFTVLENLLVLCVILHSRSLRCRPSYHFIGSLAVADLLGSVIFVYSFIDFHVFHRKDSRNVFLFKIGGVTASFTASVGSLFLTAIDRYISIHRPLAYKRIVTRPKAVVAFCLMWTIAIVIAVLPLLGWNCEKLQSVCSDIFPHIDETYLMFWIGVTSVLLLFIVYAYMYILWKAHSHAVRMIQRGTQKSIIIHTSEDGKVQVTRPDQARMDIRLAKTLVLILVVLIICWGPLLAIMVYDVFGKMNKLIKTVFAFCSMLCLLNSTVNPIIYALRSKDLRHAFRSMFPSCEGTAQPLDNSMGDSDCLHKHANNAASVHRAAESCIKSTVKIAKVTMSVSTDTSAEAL

CB1 I267L = CB1 I267L (Homo sapiens, UniProt P21554, I267L); test: BRET Gαi1 engagement, CB1 I267L mutant; conditions: read-out: E max, CB1 I267L Gαi1 Engagement
Chain of CB1 I267L (P21554 whole entry I267L): as the sequence (P21554 whole entry L193I) above, with I193L, I267L counted along it

CB2 I110L = CB2 I110L (Homo sapiens, UniProt P34972, I110L); test: BRET Gαi1 engagement, CB2 I110L mutant; conditions: read-out: E max, CB2 I110L Gαi1 Engagement
Chain of CB2 I110L (P34972 whole entry I110L): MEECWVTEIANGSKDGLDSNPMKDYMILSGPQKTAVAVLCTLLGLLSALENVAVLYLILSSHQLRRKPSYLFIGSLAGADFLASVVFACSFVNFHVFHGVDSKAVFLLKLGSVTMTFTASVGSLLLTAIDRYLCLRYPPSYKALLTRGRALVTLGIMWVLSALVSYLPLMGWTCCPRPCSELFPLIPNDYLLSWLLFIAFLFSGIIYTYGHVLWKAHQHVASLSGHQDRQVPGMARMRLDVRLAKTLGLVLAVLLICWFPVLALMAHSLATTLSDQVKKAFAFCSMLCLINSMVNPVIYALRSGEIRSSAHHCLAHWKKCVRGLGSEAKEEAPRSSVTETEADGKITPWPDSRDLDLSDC

CB2 L182I = CB2 L182I (Homo sapiens, UniProt P34972, L182I); test: BRET Gαi1 engagement, CB2 L182I mutant; conditions: read-out: E max, CB2 L182I Gαi1 Engagement
Chain of CB2 L182I (P34972 whole entry L182I): as the sequence (P34972 whole entry I110L) above, with L110I, L182I counted along it

CB2 V261L = CB2 V261L (Homo sapiens, UniProt P34972, V261L); test: BRET Gαi1 engagement, CB2 V261L mutant; conditions: read-out: E max, CB2 V261L Gαi1 Engagement
Chain of CB2 V261L (P34972 whole entry V261L): as the sequence (P34972 whole entry I110L) above, with L110I, V261L counted along it

[3] = target: CB2 triple mutant (I110L/L182I/V261L) (Homo sapiens, UniProt P34972, I110L/L182I/V261L); test: BRET Gαi1 engagement, CB2 triple mutant; conditions: read-out: E max, CB2 Triple Mutations Gαi1 Engagement
Chain of CB2 triple mutant (I110L/L182I/V261L) (P34972 whole entry I110L/L182I/V261L): as the sequence (P34972 whole entry I110L) above, with L182I, V261L counted along it

T1 sequence (P34972 whole entry): as the sequence (P34972 whole entry I110L) above, with L110I counted along it
Chain of CB1 (P21554 whole entry): as the sequence (P21554 whole entry L193I) above, with I193L counted along it

What does the source list for `CCCCCCC(C)(C)c1ccc([C@@H]2C[C@H](O)CC[C@H]2CCCO)c(O)c1` [CP55940]?
E max, CB1 Gαi1 Engagement (CB1): 99.4 ± 3.0%; Emax (CB2 [1]): 99.8 ± 2.7%; Emax (CB2 [2]): 99.7 ± 2.7%; Emax (CB1 L193I): 98.2 ± 2.2%; Emax (CB1 I267L): 77.6 ± 2.5%; Emax (CB2 I110L): 83.1 ± 2.8%; Emax (CB2 L182I): 32.2 ± 2.5%; Emax (CB2 V261L): 33.8 ± 2.6%; Emax [3]: 3 ± 2%
